PubChem BioAssay (NCI)
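48-hour exposure; five concentrations; linearly interpolated endpoints. TGI is the concentration that stops growth completely.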

How the values were obtained:
Experiment in all cases: NCI tumour cell line growth inhibition, 48 h
[1] = system: 786-0 renal
[2] = system: A549 NSCLC
[3] = system: ACHN renal
[4] = system: CAKI-1 renal
[5] = system: CCRF-CEM leukemia
[6] = system: COLO 205 colon
[7] = system: DU-145 prostate
[8] = system: EKVX NSCLC
[9] = system: HCC-2998 colon
[10] = system: HCT-116 colon
[11] = system: HCT-15 colon
[12] = system: HL-60(TB) leukemia
[13] = system: HOP-62 NSCLC
[14] = system: HOP-92 NSCLC
[15] = system: HS 578T breast
[16] = system: HT29 colon
[17] = system: IGROV1 ovarian
[18] = system: K-562 leukemia
[19] = system: KM12 colon
[20] = system: M14 melanoma
[21] = system: MALME-3M melanoma
[22] = system: MCF7 breast
[23] = system: MDA-MB-435
[24] = system: MOLT-4 leukemia
[25] = system: NCI-H23 lung
[26] = system: NCI-H460 lung
[27] = system: NCI-H522 lung
[28] = system: NCI/ADR-RES ovarian
[29] = system: OVCAR-3 ovarian
[30] = system: OVCAR-4 ovarian
[31] = system: OVCAR-5 ovarian
[32] = system: OVCAR-8 ovarian
[33] = system: PC-3 prostate
[34] = system: RXF 393 renal
[35] = system: SF-268 CNS
[36] = system: SF-295 CNS
[37] = system: SF-539 CNS
[38] = system: SK-MEL-2 melanoma
[39] = system: SK-MEL-28 melanoma
[40] = system: SK-MEL-5 melanoma
[41] = system: SK-OV-3 ovarian
[42] = system: SN12C renal
[43] = system: SNB-19 CNS
[44] = system: SNB-75 CNS
[45] = system: SR leukemia
[46] = system: SW-620 colon
[47] = system: T-47D breast
[48] = system: TK-10 renal
[49] = system: U251 CNS
[50] = system: UACC-257 melanoma
[51] = system: UACC-62 melanoma
[52] = system: UO-31 renal
[53] = system: A498 renal
[54] = system: BT-549 breast
[55] = system: LOX IMVI melanoma
[56] = system: MDA-MB-231 breast
[57] = system: NCI-H226 lung

Structure (SMILES): O=C1C(Cl)=C(Cl)C(=O)C(CCNc2nccs2)=C1Cl
- TGI [1]: 45 µM
- TGI [2]: > 100 µM
- TGI [3]: 63.2 µM
- TGI [4]: 37.1 µM
- TGI [5]: > 100 µM
- TGI [6]: > 100 µM
- TGI [7]: > 100 µM
- TGI [8]: 60.4 µM
- TGI [9]: > 100 µM
- TGI [10]: 68.4 µM
- TGI [11]: 43.7 µM
- TGI [12]: > 100 µM
- TGI [13]: > 100 µM
- TGI [14]: 58.2 µM
- TGI [15]: 75.3 µM
- TGI [16]: > 100 µM
- TGI [17]: 42.2 µM
- TGI [18]: > 100 µM
- TGI [19]: > 100 µM
- TGI [20]: 42 µM
- TGI [21]: 46.6 µM
- TGI [22]: > 100 µM
- TGI [23]: 42 µM
- TGI [24]: > 100 µM
- TGI [25]: 59.3 µM
- TGI [26]: > 100 µM
- TGI [27]: 51.3 µM
- TGI [28]: 58.7 µM
- TGI [29]: 49.8 µM
- TGI [30]: > 100 µM
- TGI [31]: > 100 µM
- TGI [32]: 87.3 µM
- TGI [33]: 42.2 µM
- TGI [34]: 46.2 µM
- TGI [35]: > 100 µM
- TGI [36]: > 100 µM
- TGI [37]: > 100 µM
- TGI [38]: 75.6 µM
- TGI [39]: > 100 µM
- TGI [40]: 50.1 µM
- TGI [41]: > 100 µM
- TGI [42]: 73.2 µM
- TGI [43]: > 100 µM
- TGI [44]: 69.5 µM
- TGI [45]: > 100 µM
- TGI [46]: > 100 µM
- TGI [47]: > 100 µM
- TGI [48]: 63.6 µM
- TGI [49]: > 100 µM
- TGI [50]: 54.3 µM
- TGI [51]: 63.6 µM
- TGI [52]: 46.4 µM

Structure (SMILES): Cc1cc(OCc2nnc3n2S(=O)(=O)c2ccccc2N3C)ccc1Cl
- TGI [1]: 32.7 µM
- TGI [53]: 55.3 µM
- TGI [2]: > 100 µM
- TGI [3]: 53 µM
- TGI [54]: 36.4 µM
- TGI [4]: > 100 µM
- TGI [5]: 38 µM
- TGI [6]: > 100 µM
- TGI [7]: > 100 µM
- TGI [8]: > 100 µM
- TGI [9]: > 100 µM
- TGI [10]: > 100 µM
- TGI [11]: > 100 µM
- TGI [12]: 55.1 µM
- TGI [13]: 29.7 µM
- TGI [14]: 36.4 µM
- TGI [15]: > 100 µM
- TGI [16]: > 100 µM
- TGI [17]: > 100 µM
- TGI [18]: > 100 µM
- TGI [19]: > 100 µM
- TGI [55]: > 100 µM
- TGI [20]: > 100 µM
- TGI [22]: > 100 µM
- TGI [56]: 41.7 µM
- TGI [23]: > 100 µM
- TGI [24]: > 100 µM
- TGI [57]: > 100 µM
- TGI [25]: > 100 µM
- TGI [26]: > 100 µM
- TGI [27]: 45.6 µM
- TGI [28]: > 100 µM
- TGI [29]: 57.2 µM
- TGI [30]: 24.2 µM
- TGI [31]: > 100 µM
- TGI [32]: > 100 µM
- TGI [33]: > 100 µM
- TGI [34]: 60.1 µM
- TGI [35]: 68 µM
- TGI [36]: 50.2 µM
- TGI [37]: 38.6 µM
- TGI [38]: > 100 µM
- TGI [39]: > 100 µM
- TGI [40]: > 100 µM
- TGI [41]: 37.4 µM
- TGI [42]: > 100 µM
- TGI [43]: 39.1 µM
- TGI [46]: > 100 µM
- TGI [47]: > 100 µM
- TGI [48]: > 100 µM
- TGI [49]: 43.6 µM
- TGI [50]: > 100 µM
- TGI [51]: 52.9 µM
- TGI [52]: > 100 µM
